The values below come from patent US7214675B2, “Urea substituted imidazoquinoline ethers” (3M Innovative Properties Company, priority 2000, dated 2007).

For data set [1], the system named is interferon (α) induction in human peripheral blood mononuclear cells (PBMC). Kind of data set: Cytokine induction in human cells: interferon (α) secreted by PBMC, ELISA. Type of data set: cell-based. On the set-up: key to Lowest Effective Concentration (μM) Interferon: A “*” indicates that no induction was seen at any of the tested concentrations; generally the highest concentration tested was 10 or 30 μM. The note with it: lowest concentration found to induce interferon, incubated 18 to 24 hours at 37° C. An excerpt:
(§1) An in vitro human blood cell system is used to assess cytokine induction. Activity is based on the measurement of interferon and tumor necrosis factor (α) (IFN and TNF, respectively) secreted into culture media as described by Testerman et. al. In “Cytokine Induction by the Immunomodulators Imiquimod and S-27609”, Journal of Leukocyte Biology, 58, 365–372 (September, 1995).
(§2) Whole blood from healthy human donors is collected by venipuncture into EDTA vacutainer tubes. Peripheral blood mononuclear cells (PBMC) are separated from whole blood by density gradient centrifugation using Histopaque®-1077. Blood is diluted 1:1 with Dulbecco's Phosphate Buffered Saline (DPBS) or Hank's Balanced Salts Solution (HBSS). The PBMC layer is collected and washed twice with DPBS or HBSS and resuspended at 4×10^6 cells/mL in RPMI complete. The PBMC suspension is added to 48 well flat bottom sterile tissue culture plates (Costar, Cambridge, Mass. or Becton Dickinson Labware, Lincoln Park, N.J.) containing an equal volume of RPMI complete media containing test compound.
(§3) The compounds are solubilized in dimethyl sulfoxide (DMSO). The DMSO concentration should not exceed a final concentration of 1% for addition to the culture wells. The compounds are generally tested at concentrations ranging from 30–0.014 μM.
(§4) The solution of test compound is added at 60 μM to the first well containing RPMI complete and serial 3 fold dilutions are made in the wells. The PBMC suspension is then added to the wells in an equal volume, bringing the test compound concentrations to the desired range (30–0.014 μM). The final concentration of PBMC suspension is 2×10^6 cells/mL. The plates are covered with sterile plastic lids, mixed gently and then incubated for 18 to 24 hours at 37° C. in a 5% carbon dioxide atmosphere.
(§5) Following incubation the plates are centrifuged for 10 minutes at 1000 rpm (˜200×g) at 4° C. The cell-free culture supernatant is removed with a sterile polypropylene pipet and transferred to sterile polypropylene tubes. Samples are maintained at −30 to −70° C. until analysis. The samples are analyzed for interferon (α) by ELISA and for tumor necrosis factor (α) by ELISA or IGEN Assay
Interferon (α) concentration is determined by ELISA using a Human Multi-Species kit from PBL Biomedical Laboratories, New Brunswick, N.J. Results are expressed in pg/mL.
(§6) The table below lists the lowest concentration found to induce interferon and the lowest concentration found to induce tumor necrosis factor for each compound.

Data set [2] relates to tumor necrosis factor (α) induction in human peripheral blood mononuclear cells (PBMC). Kind of data set: Cytokine induction in human cells: tumor necrosis factor (α) secreted by PBMC, ELISA or IGEN assay. It counts as cell-based. On the set-up: key to Lowest Effective Concentration (μM) Tumor Necrosis Factor: A “*” indicates that no induction was seen at any of the tested concentrations; generally the highest concentration tested was 10 or 30 μM. Particulars: lowest concentration found to induce tumor necrosis factor, incubated 18 to 24 hours at 37° C.
From the text: as §1, §2, §3, §4, §5
Tumor necrosis factor (α) (TNF) concentration is determined using ELISA kits available from Biosource International, Camarillo, Calif. Alternately, the TNF concentration can be determined by Origen® M-Series Immunoassay and read on an IGEN M-8 analyzer from IGEN International, Gaithersburg, Md. The immunoassay uses a human TNF capture and detection antibody pair from Biosource International, Camarillo, Calif. Results are expressed in pg/mL.
as §6

Broadly, the melting point is the temperature, or range, at which the solid turns liquid. What is called minimal effective concentration is the lowest level tested that produced the effect sought.

In the case of `COCCc1nc2c(N)nc3c(c2n1CCOCCNC(=O)Nc1ccccc1)CCCC3` [Example 2, N-(2-{2-[4-amino-2-(2-methoxyethyl)-6,7,8,9-tetrahydro-1H-imidazo[4,5-c]quinolin-1-yl]ethoxy}ethyl)-N′-phenylurea], the melting point was in the range of 180 to 182 °C. `COCCc1nc2c(N)nc3ccccc3c2n1CCOCCN(C)C(=O)Nc1ccccc1` [Example 3, N-(2-{2-[4-amino-2-(2-methoxyethyl)-1H-imidazo[4,5-c]quinolin-1-yl]ethoxy}ethyl)-N-methyl-N′-phenylurea]: the melting point lay in the range of 184.8 to 185.8 °C. In data set [1], the minimal effective concentration amounted to 0.01 µM. Moreover, in data set [2], the minimal effective concentration came to 0.37 µM. `COCCc1nc2c(N)nc3c(c2n1CCOCCN(C)C(=O)Nc1ccccc1)CCCC3` [Example 4, N-(2-{2-[4-amino-2-(2-methoxyethyl)-6,7,8,9-tetrahydro-1H-imidazo[4,5-c]quinolin-1-yl]ethoxy}ethyl)-N-methyl-N′-phenylurea] showed a melting point of 167.7 to 170 °C. For `COCCc1nc2c(N)nc3ccccc3c2n1CCOCCN(C)C(=O)N1CCOCC1` [Example 6, N-(2-{2-[4-amino-2-(2-methoxyethyl)-1H-imidazo[4,5-c]quinolin-1-yl]ethoxy}ethyl)-N-methylmorpholine-4-carboxamide], the melting point fell in the range of 121.8 to 122.3 °C. Consider `Nc1nc2ccccc2c2c1ncn2CCOCCNC(=O)NS(=O)(=O)c1ccccc1` [Example 44], for which the “Lowest Effective Concentration (μM) Interferon” value in data set [1] is “*”. Further, the “Lowest Effective Concentration (μM) Tumor Necrosis Factor” value in data set [2] is “*”. Regarding `Cc1nc2c(N)nc3ccccc3c2n1CCOCCNC(=O)Nc1ccccc1` [Example 48, N-{2-[2-(4-amino-2-methyl-1H-imidazo[4,5-c]quinolin-1-yl)ethoxy]ethyl}-N′-phenylurea], the melting point is 193 to 195 °C. The compound `Cc1nc2c(N)nc3ccccc3c2n1CCOCCNC(=O)NC1CCCCC1` [Example 49, N-{2-[2-(4-amino-2-methyl-1H-imidazo[4,5-c]quinolin-1-yl)ethoxy]ethyl}-N′-cyclohexylurea] returned a melting point of 207 to 209 °C. `CCc1nc2c(N)nc3ccccc3c2n1CCOCCNC(=O)NC1CCCCC1` [Example 51, N-{2-[2-(4-amino-2-ethyl-1H-imidazo[4,5-c]quinolin-1-yl)ethoxy]ethyl}-N′-cyclohexylurea] had a melting point of 198 to 200 °C.

Consider `CCc1nc2c(N)nc3ccccc3c2n1CCOCCNC(=O)N1CCOCC1` [Example 52, N-{2-[2-(4-amino-2-ethyl-1H-imidazo[4,5-c]quinolin-1-yl)ethoxy]ethyl}morpholine-4-carboxamide], for which the melting point lay in the range of 182 to 184 °C. `CCOCc1nc2c(N)nc3ccccc3c2n1CCOCCNC(=O)Nc1ccccc1` [Example 53, N-(2-{2-[4-amino-2-(ethoxymethyl)-1H-imidazo[4,5-c]quinolin-1-yl]ethoxy}ethyl)-N′-phenylurea] displayed a melting point of 183 to 186 °C. Still for that read-out and setting: the result for `CCOCc1nc2c(N)nc3ccccc3c2n1CCOCCNC(=O)NC1CCCCC1` [Example 54, N-(2-{2-[4-amino-2-(ethoxymethyl)-1H-imidazo[4,5-c]quinolin-1-yl]ethoxy}ethyl)-N′cyclohexylurea] reads 161 to 164 °C.

Take `CCOCc1nc2c(N)nc3ccccc3c2n1CCOCCNC(=O)N1CCOCC1` [Example 55, N-(2-{2-[4-amino-2-(ethoxymethyl)-1H-imidazo[4,5-c]quinolin-1-yl]ethoxy}ethyl)morpholine-4-carboxamide]: the melting point was in the range of 178 to 181 °C.
